Assay results as given in publication PMC11047712, “Synergistic Antioxidant and Anti-Inflammatory Effects of Phenolic Acid-Conjugated Glutamine–Histidine–Glycine–Valine (QHGV) Peptides Derived from Oysters (Crassostrea talienwhanensis)” (Antioxidants, 2024).

Assays:
[1] = ABTS radical scavenging activity test; type: biochemical; conditions: for Anti-oxidant Rank (ABTS radical scavenging activity rank) / IC50: Table S1; for Anti-oxidant Rank (ABTS radical scavenging activity rank): rank by IC50, 1 = most active; for ABTS antioxidant activity (in words): various concentrations between 0.000001 and 1 mM; for ABTS radical scavenging activity: 0.01 mM, n = 3; for ABTS radical scavenging activity / IC50: 5 min at room temperature, absorbance 734 nm; for IC50: tested 0.000001-1 mM, calculated by GraphPad Prism 5, unit inferred
Method: The ABTS radical cation solution was prepared by mixing 1 mL of a 14 mM ABTS solution and 1 mL of 4.9 mM potassium persulfate. The mixture reacted in the dark at room temperature for 16 h. The ABTS solution was diluted with PBS (1:50, v/v), and 190 μL of it reacted with 10 μL of the sample solution in a 96-well plate at room temperature for 5 min. The absorbance at 734 nm was measured using a SpectraMax iD3 microplate reader (Molecular Devices, San Jose, CA, USA), and the ABTS radical scavenging activity rate was calculated using the following equation:ABTS radical scavenging activity (%) = 1 − (absorbance of sample/absorbance of water) × 100

HaCaT cells = test: Cell viability (MTT assay) in HaCaT cells; type: cell-based, human; conditions: 0.032-500 µM, 24 h
Method: Cell viability was assessed using an MTT assay. HaCaT cells (1.0 × 10^4 cells/mL) were seeded in a 96-well plate and cultured for 24 h. Thereafter, the cells were treated with the peptide solution (0–500 µM) for 24 h. […] The MTT solution was prepared by dissolving it in phosphate-buffered saline (PBS) at a concentration of 5 mg/mL. 10 μL of the prepared MTT solution was added to each well, and the plate was incubated for 4 h. After removing the culture medium, 200 μL of dimethyl sulfoxide (DMSO) was added to each well to solubilize any deposited formazan. The absorbance at 560 nm was measured using an Epoch microplate Spectrophotometer (BioTek, Winooski, VT, USA).

[2] = test system: inducible nitric oxide synthase (iNos) mRNA; test: iNos mRNA expression in LPS-induced RAW 264.7 cells (qRT-PCR); type: cell-based, murine; conditions: peptide 500 μM pretreated 2 h, LPS 0.1 μg/mL 24 h, normalized to Gapdh, n = 3
Method: (§2) The peptide and control groups were pretreated with 500 and 0 μM of the peptide solution, respectively, for 2 h, followed by stimulation with 0.1 μg/mL of LPS for 24 h. Total cellular RNA was isolated using the RNeasy Mini Kit (Qiagen, Santa Clara, CA, USA). Total RNA was used to synthesize complementary DNA (cDNA) using the PrimeScript™ 1st strand cDNA synthesis kit (TaKaRa, Kusatsu, Japan). […] The mRNA levels of iNos, Cox-2, and Col1a1 were normalized to that of Gapdh, which is a housekeeping gene. The mRNA levels were quantified using the 2^-ddCt method based on the Ct values.

[3] = test system: cyclooxygenase-2 (Cox-2) mRNA; test: Cox-2 mRNA expression in LPS-induced RAW 264.7 cells (qRT-PCR); type: cell-based, murine; conditions: peptide 500 μM pretreated 2 h, LPS 0.1 μg/mL 24 h, normalized to Gapdh, n = 3
Method: as §2

[4] = test system: collagen type I alpha 1 chain (Col1a1) mRNA; test: Collagen I (Col1a1) mRNA level in HaCaT cells (RT-PCR); type: cell-based, human; conditions: peptide 500 μM, normalized to Gapdh, n = 3
Method: The peptide and control groups were pretreated with 500 and 0 μM of the peptide solution, respectively, for 2 h, followed by stimulation with 0.1 μg/mL of LPS for 24 h. Total cellular RNA was isolated using the RNeasy Mini Kit (Qiagen, Santa Clara, CA, USA). Total RNA was used to synthesize complementary DNA (cDNA) using the PrimeScript™ 1st strand cDNA synthesis kit (TaKaRa, Kusatsu, Japan). The sequences of oligonucleotide primers for amplifying inducible nitric oxide synthase (iNos), cyclooxygenase-2 (Cox-2), and collagen type I alpha 1 chain (Col1a1) synthesized from Bioneer (Daejeon, Republic of Korea) and glyceraldehyde-3-phosphate dehydrogenase (Gapdh) synthesized from Macrogen (Seoul, Republic of Korea) are listed in Table 1. […] The mRNA levels of iNos, Cox-2, and Col1a1 were normalized to that of Gapdh, which is a housekeeping gene. The mRNA levels were quantified using the 2^-ddCt method based on the Ct values.

[5] = test system: collagen I (COL1A1) protein; test: Collagen I (COL1A1) protein level in HaCaT cells (Western blot); type: cell-based, human; conditions: peptide 500 µM, 24 h, Western blot densitometry normalized to GAPDH, n = 3
Method: (§1) HaCaT (3.0 × 10^5 cells/well) and RAW 264.7 (1.5 × 10^5 cells/well) cells were seeded in the wells of a six-well plate. HaCaT and RAW 264.7 cells were treated with the peptide solutions (500 µM) for 24 and 2 h, respectively, and then stimulated with LPS (0.1 μg/mL) for 15 min. The cells were then washed with cold PBS and lysed in a cold lysis buffer. Cell debris was removed after centrifugation at 12,000× g for 30 min at 4 °C. Protein concentration was determined using the bicinchoninic acid (BCA) protein assay. The four-times-concentrated protein-denaturing buffer (1.25 M Tris-HCl (pH 6.8), glycerol, SDS, 2-mercaptoethanol, and 0.4% bromophenol blue) was added to the cell lysate and the mixture was boiled at 100 °C for 5 min. Proteins were separated by electrophoresis on 10% (for MAPKs) or 12% (for collagen) sodium dodecyl sulfate-polyacrylamide gel and electroblotted onto polyvinylidene fluoride membranes. The membranes were blocked with 5% skimmed milk in Tris-buffered saline–Tween (TBS-T) at room temperature for 1 h. After washing, the membranes were incubated overnight in respective primary antibody solutions (anti-phospho-ERK, anti-phospho-JNK, anti-phospho-p38, anti-collagen I, anti-GAPDH or anti-β-actin antibodies) at 4 °C. The membranes were washed with TBS-T and incubated with a horseradish peroxidase-conjugated secondary antibody solution for 1 h at room temperature. They were washed again with TBS-T and PBS and developed using an enhanced chemiluminescence reagent. Images of the immunoblots were scanned with an iBright™ CL1500 Imaging System (Thermo Fisher Scientific, Waltham, MA, USA). The band intensities of phospho-ERK, phospho-JNK, phospho-p38, and collagen I proteins were quantified by densitometric analysis using the ImageJ software 1.8.0 (National Institutes of Health, NIH, Bethesda, MD, USA). To normalize for protein loading, antibodies against β-actin and GAPDH were used, and phospho-ERK 1/2, phospho-JNK, and phospho-p38 phosphorylation levels were expressed relative to those of ERK, p38, and JNK, respectively. The levels of collagen I were normalized to those of GAPDH. Images of raw Western blots are shown in the Supplementary Data.

phospho-ERK 1/2 = test: LPS-induced phosphorylation of ERK in RAW 264.7 cells (Western blot); type: cell-based, murine; conditions: peptide 500 µM 2 h, LPS 0.1 μg/mL 15 min, densitometry relative to ERK, n = 3
Method: as §1

phospho-JNK = test: LPS-induced phosphorylation of JNK in RAW 264.7 cells (Western blot); type: cell-based, murine; conditions: peptide 500 µM 2 h, LPS 0.1 μg/mL 15 min, densitometry relative to JNK, n = 3
Method: as §1, with “HaCaT and RAW 264.7 cells were treated with the peptide solutions (500 µM) for 24 and 2 h, respectively, and then stimulated with LPS (0.1 μg/mL) for 15 min.” left out, “The four-times-concentrated protein-denaturing buffer (1.25 M Tris-HCl (pH 6.8), glycerol, SDS, 2-mercaptoethanol, and 0.4% bromophenol blue) was added to the cell lysate and the mixture was boiled at 100 °C for 5 min. Proteins were separated by electrophoresis on 10% (for MAPKs) or 12% (for collagen) sodium dodecyl sulfate-polyacrylamide gel and electroblotted onto polyvinylidene fluoride membranes.” left out, “To normalize for protein loading, antibodies against β-actin and GAPDH were used, and phospho-ERK 1/2, phospho-JNK, and phospho-p38 phosphorylation levels were expressed relative to those of ERK, p38, and JNK, respectively.” left out

phospho-p38 = test: LPS-induced phosphorylation of p38 in RAW 264.7 cells (Western blot); type: cell-based, murine; conditions: peptide 500 µM 2 h, LPS 0.1 μg/mL 15 min, densitometry relative to p38, n = 3
Method: HaCaT (3.0 × 10^5 cells/well) and RAW 264.7 (1.5 × 10^5 cells/well) cells were seeded in the wells of a six-well plate. HaCaT and RAW 264.7 cells were treated with the peptide solutions (500 µM) for 24 and 2 h, respectively, and then stimulated with LPS (0.1 μg/mL) for 15 min. The cells were then washed with cold PBS and lysed in a cold lysis buffer. Cell debris was removed after centrifugation at 12,000× g for 30 min at 4 °C. Protein concentration was determined using the bicinchoninic acid (BCA) protein assay. The four-times-concentrated protein-denaturing buffer (1.25 M Tris-HCl (pH 6.8), glycerol, SDS, 2-mercaptoethanol, and 0.4% bromophenol blue) was added to the cell lysate and the mixture was boiled at 100 °C for 5 min. Proteins were separated by electrophoresis on 10% (for MAPKs) or 12% (for collagen) sodium dodecyl sulfate-polyacrylamide gel and electroblotted onto polyvinylidene fluoride membranes. The membranes were blocked with 5% skimmed milk in Tris-buffered saline–Tween (TBS-T) at room temperature for 1 h. […] The band intensities of phospho-ERK, phospho-JNK, phospho-p38, and collagen I proteins were quantified by densitometric analysis using the ImageJ software 1.8.0 (National Institutes of Health, NIH, Bethesda, MD, USA). […]

With “QHGV [glutamine–histidine–glycine–valine]” the “Anti-oxidant Rank (ABTS radical scavenging activity rank)” value (shortened to “Anti-oxidant Rank”) [1] was 8, the “ABTS antioxidant activity (in words)” value [1] was “did not exhibit high antioxidant activity” and the “cytotoxicity (in words)” value (HaCaT cells) was “no cytotoxicity”. For the same compound, the “reduction of LPS-induced iNos mRNA level” value [2] was “reduced”, the “reduction of LPS-induced Cox-2 mRNA level” value [3] was “reduced” and the “increase of collagen I mRNA level compared with the negative control group” value [4] was 26%. For the same compound, the “increase of collagen I protein level” value [5] was 147%.
In the case of sinapoyl-QHGV [Si-QHGV], the “ABTS radical scavenging activity” value [1] is reported as 27%, the “reduction of LPS-induced iNos mRNA level” value [2] is reported as “did not significantly affect” and the “reduction of LPS-induced Cox-2 mRNA level” value [3] is reported as 15%. For the same compound, the “decrease of p-ERK level” value (phospho-ERK 1/2) was 5% and the “increase of collagen I protein level” value [5] was 363%.
In the case of “β-alanyl-L-histidine [carnosine, reference compound]”, the “reduction of LPS-induced iNos mRNA level” value [2] is reported as “no significant effect” and the “reduction of LPS-induced Cox-2 mRNA level” value [3] is reported as “no significant effect”.
For “N-(1-oxohexadecyl) glycyl-L-histidyl-L-lysine [PTP-1, reference compound]”, the “increase of collagen I mRNA level compared with the negative control group” value [4] was 135%.
In the case of feruloyl-QHGV [Fe-QHGV], the “ABTS radical scavenging activity” value [1] is reported as 31%, the “Anti-oxidant Rank” value [1] is reported as 6 and the IC50 [1] is reported as 17.8 µM. For the same compound, the “reduction of LPS-induced iNos mRNA level” value [2] was “did not significantly affect”, the “reduction of LPS-induced Cox-2 mRNA level” value [3] was 11% and the “decrease of p-JNK level” value (phospho-JNK) was 23%. For the same compound, the “increase of collagen I protein level” value [5] was 457%.
For `O=C(O)c1cc(O)c(O)c(O)c1` [Gallic acid, gallic acid, reference compound], the “Anti-oxidant Rank” value [1] was 1, the IC50 [1] was 2.49 µM and the “ABTS antioxidant activity (in words)” value [1] was “highest antioxidant activity”.
With caffeoyl-QHGV [Ca-QHGV] the “ABTS radical scavenging activity” value [1] was 33%, the “Anti-oxidant Rank” value [1] was 5 and the IC50 [1] was 16.7 µM. The “reduction of LPS-induced iNos mRNA level” value [2] was 26%, the “reduction of LPS-induced Cox-2 mRNA level” value [3] was 8% and the “decrease of p-JNK level” value (phospho-JNK) was 10%. The “decrease of p-ERK level” value (phospho-ERK 1/2) was 9%, the “decrease of p-p38 level” value (phospho-p38) was 5% and the “increase of collagen I protein level” value [5] was 316%.
